Measured values from publication PMC10824666 (Nature Cancer, 2023).
Like-named read-outs stand apart in the source and are kept apart here. One block for each compound: values may come before it.

Tests used:
Assay in all cases: biochemical
Parameters in all cases: Eurofins DiscoverX kinase panel, competitive binding assay at 1 uM, percent of DMSO control
Settings in all cases: competitive binding, percent of DMSO control
[1] = biological target: LIMK1 (Homo sapiens, UniProt P53667)
Method: (§1) Extended Data Fig. 3 In vitro characterization of potent and selective KIF18A inhibitors. a, KIF18A compounds (1 µM) were assessed across a panel of kinases (n = 96) by a competitive binding assay. Graph presented as percentage of control (POC); dashed line indicates POC value of 30 (n = 1 experiment). b, Tubulin polymerization analysis. Profile of KIF18A compounds (10 µM) relative to DMSO, paclitaxel (5 µM, tubulin stabilizer), or nocodazole (5 µM, tubulin destabilizer). Graphs presented as tubulin fluorescence signal at 440 nm expressed as arbitrary units (a.u.) versus time (min) with area-under-the-curve (AUC) values (n = 1 or 3 independent experiments). c, Mitotic spindle image analysis. […] Representative images were captured with x40 objective (scale bar = 10 µm) (n = 1 experiment). d-f, KIF18A compound effects on HeLa cells. d, Cells were treated for 96 h with DMSO or KIF18A compounds at the indicated concentrations. KIF18A compound concentration-response profiles presented as count relative to the percentage of DMSO control (POC) with count EC50 values (n = 2 independent experiments in duplicate). e, KIF18A protein localization in cells after treatment for 6 hours with DMSO or AM-1882 (0.05 µM). Cells stained to detect DNA, KIF18A, and centrin-3. Representative images of mitotic cells (n = 3 per group) were captured with x60 objective (scale bar = 5 µm) and graphs of line scan measurements were obtained for DNA, KIF18A, and centrin-3 channels expressed as fluorescence intensity (a.u.) versus distance (µm) (n = 1 experiment). f, Mitotic cell fate imaging analysis. HeLa Kyoto cells co-expressing α-tubulin-EGFP and H2B-mCherry proteins released from a G1S block in media containing DMSO or AM-1882 (0.2 µM). Analysis was performed on cells entering the first mitosis (n = 40 cells per group). Graph presented as time in mitosis (h) versus mitotic cell fate, either complete cell division (CCD) or death in mitosis (DiM). Classified cells exiting mitosis by the number of daughter cells and cell death in […] We screened a small-molecule library of diverse compounds for selective inhibitors of KIF18A MT-ATPase motor activity. Two compound hits were discovered that phenocopied the effects of KIF18A KD in cells; these hits are structurally distinct from the KIF18A inhibitor BTB-1 (refs. [27],[28]). […] However, the potency of the KIF18A inhibitors was unaffected by varying ATP and MT concentrations (Extended Data Fig. 2d). This supports our proposed model in which KIF18A inhibitors occupy an allosteric pocket formed by motor helices α4 and α6 close to the motor MT-binding surface. To screen for potential off-target interactions with essential mitotic kinases, three of the KIF18A compounds were profiled against a large panel of kinases. […] We next investigated whether our KIF18A inhibitors affected tubulin polymerization in vitro in the absence of the KIF18A motor. All four KIF18A compounds had tubulin-polymerization profiles similar to that of the DMSO control and distinct from those of the paclitaxel (MT stabilizer) and nocodazole (MT destabilizer) co

[2] = biological target: T1, JNK3 (Homo sapiens, UniProt P53779)
T1 construct: gene MAPK10
T1 sequence (P53779 whole entry): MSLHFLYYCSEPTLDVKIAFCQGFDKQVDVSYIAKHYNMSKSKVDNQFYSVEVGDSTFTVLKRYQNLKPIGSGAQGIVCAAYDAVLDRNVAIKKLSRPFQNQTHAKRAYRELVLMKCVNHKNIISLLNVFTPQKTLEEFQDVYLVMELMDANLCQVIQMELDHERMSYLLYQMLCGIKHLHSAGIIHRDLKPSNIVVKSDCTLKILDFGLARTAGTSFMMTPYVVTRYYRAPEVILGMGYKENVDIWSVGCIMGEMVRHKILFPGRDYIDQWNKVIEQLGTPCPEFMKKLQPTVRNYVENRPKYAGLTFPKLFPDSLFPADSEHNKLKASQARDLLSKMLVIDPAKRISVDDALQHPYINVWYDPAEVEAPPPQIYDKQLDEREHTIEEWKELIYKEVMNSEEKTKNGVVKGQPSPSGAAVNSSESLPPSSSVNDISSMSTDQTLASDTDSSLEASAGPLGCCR
Method: as §1

[3] = biological target: T2, YSK4 (Homo sapiens, UniProt Q56UN5)
T2 construct: gene MAP3K19
T2 sequence (Q56UN5 1-1328): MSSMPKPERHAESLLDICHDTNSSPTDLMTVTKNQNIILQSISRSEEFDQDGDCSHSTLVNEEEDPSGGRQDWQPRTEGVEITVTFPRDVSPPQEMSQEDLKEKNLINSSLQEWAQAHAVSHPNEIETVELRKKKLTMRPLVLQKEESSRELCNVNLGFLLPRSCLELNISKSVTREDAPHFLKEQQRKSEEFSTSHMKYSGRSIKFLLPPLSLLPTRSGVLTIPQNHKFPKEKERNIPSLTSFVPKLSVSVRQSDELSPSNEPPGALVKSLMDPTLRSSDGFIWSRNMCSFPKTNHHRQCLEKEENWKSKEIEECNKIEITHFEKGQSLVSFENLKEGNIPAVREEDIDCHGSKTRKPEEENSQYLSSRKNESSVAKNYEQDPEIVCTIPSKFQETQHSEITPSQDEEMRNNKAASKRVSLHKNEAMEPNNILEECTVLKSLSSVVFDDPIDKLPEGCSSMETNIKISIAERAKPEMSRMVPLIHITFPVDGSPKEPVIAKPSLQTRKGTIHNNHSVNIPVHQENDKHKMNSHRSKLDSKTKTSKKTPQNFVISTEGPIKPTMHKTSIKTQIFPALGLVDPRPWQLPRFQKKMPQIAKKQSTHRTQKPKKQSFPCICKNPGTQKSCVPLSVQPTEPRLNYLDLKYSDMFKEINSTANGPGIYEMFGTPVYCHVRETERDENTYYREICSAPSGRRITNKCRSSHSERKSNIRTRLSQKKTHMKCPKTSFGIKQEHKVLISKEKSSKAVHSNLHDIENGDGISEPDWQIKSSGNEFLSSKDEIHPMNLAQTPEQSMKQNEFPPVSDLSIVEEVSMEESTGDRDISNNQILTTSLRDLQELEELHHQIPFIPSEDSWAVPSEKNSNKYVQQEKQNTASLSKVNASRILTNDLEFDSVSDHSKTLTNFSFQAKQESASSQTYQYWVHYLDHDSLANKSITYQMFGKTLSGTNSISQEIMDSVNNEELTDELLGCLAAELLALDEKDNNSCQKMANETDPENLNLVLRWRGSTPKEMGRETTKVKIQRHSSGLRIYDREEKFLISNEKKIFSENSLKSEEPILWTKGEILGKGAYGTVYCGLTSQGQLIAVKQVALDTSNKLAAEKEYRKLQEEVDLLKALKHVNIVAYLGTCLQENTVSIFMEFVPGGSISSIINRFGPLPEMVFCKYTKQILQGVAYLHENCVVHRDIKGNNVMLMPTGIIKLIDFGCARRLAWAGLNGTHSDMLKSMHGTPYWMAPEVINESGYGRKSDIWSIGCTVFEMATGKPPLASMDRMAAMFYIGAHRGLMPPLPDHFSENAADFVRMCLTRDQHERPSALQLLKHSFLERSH
Method: as §1

[4] = biological target: T3, ROCK 2 (Homo sapiens, UniProt O75116)
T3 construct: gene ROCK2
T3 sequence (O75116 whole entry): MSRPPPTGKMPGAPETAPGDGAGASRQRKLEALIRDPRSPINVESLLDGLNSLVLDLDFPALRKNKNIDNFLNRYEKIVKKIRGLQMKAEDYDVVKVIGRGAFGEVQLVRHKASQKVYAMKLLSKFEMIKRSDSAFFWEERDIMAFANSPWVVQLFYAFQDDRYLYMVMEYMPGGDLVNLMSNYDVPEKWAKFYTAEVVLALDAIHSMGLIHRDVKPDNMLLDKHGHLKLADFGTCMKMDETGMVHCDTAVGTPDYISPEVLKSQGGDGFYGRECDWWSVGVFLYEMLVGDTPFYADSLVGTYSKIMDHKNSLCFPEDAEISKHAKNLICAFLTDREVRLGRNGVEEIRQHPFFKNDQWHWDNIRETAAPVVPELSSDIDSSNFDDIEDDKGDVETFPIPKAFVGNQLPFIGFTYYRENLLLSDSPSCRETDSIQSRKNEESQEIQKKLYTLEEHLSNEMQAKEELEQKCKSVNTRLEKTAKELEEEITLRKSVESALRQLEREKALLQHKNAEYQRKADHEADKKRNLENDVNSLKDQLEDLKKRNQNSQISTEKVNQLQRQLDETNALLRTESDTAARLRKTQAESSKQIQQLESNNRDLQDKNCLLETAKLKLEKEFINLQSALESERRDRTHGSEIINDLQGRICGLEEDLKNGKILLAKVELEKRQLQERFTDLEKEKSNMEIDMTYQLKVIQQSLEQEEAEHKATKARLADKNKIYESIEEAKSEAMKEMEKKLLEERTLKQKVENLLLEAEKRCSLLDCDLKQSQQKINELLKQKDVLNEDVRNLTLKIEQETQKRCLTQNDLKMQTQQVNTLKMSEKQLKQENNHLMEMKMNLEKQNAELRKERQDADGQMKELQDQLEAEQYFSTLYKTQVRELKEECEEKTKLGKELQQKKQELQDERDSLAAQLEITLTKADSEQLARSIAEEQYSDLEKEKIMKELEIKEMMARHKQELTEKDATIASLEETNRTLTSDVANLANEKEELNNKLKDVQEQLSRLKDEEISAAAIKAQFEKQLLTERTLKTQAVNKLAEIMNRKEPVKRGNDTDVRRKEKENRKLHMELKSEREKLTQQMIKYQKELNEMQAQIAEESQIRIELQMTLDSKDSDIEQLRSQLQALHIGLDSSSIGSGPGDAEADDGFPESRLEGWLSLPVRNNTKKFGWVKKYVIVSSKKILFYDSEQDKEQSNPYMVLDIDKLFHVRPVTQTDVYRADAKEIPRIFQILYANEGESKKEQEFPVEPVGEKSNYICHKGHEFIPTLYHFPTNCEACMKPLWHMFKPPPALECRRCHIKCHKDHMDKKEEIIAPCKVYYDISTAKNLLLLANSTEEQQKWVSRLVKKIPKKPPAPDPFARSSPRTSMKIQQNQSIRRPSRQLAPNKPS
Method: as §1

[5] = read-out: Kinome Profiling performed by Eurofins DiscoverX / AM-1882, 1.0 µM / POC
[6] = read-out: Kinome Profiling performed by Eurofins DiscoverX / AM-5308, 1.0 µM / POC
[7] = read-out: Kinome Profiling performed by Eurofins DiscoverX / AM-0277, 1.0 µM / POC

Sequence of LIMK1 (P53667 whole entry): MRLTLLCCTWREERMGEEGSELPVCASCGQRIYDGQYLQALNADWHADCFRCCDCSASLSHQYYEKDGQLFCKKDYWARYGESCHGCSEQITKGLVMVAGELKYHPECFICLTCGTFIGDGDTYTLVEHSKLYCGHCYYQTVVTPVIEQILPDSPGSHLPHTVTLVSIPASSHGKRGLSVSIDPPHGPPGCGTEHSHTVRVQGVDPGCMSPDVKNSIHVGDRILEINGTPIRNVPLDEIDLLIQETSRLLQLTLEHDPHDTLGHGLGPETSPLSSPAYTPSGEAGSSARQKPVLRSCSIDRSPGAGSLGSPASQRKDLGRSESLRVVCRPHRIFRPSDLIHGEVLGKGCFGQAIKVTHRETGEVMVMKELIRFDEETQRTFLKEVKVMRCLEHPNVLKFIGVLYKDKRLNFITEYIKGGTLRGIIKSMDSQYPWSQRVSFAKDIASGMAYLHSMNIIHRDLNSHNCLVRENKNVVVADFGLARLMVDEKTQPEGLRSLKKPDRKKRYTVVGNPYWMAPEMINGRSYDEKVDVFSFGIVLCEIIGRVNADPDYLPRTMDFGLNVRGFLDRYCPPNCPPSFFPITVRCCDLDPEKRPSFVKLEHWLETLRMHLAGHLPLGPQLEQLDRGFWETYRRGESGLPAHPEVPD

remaining activity at 1 µM [1, 5]: 87%
remaining activity at 1 µM [2, 5]: 82%
remaining activity at 1 µM [3, 5]: 87%
remaining activity at 1 µM [4, 5]: 77%
SMILES: CC(C)(C)NS(=O)(=O)c1cccc(NC(=O)c2ccc(S(=O)(=O)NC(C)(C)C)cc2N2CCC3(CC2)CC3)c1 [AM-1882]

remaining activity at 1 µM [1, 6]: 92.5%
remaining activity at 1 µM [2, 6]: 88.5%
remaining activity at 1 µM [3, 6]: 75.5%
remaining activity at 1 µM [4, 6]: 97.5%
SMILES: C[C@@H]1CN(c2cccc(NC(=O)c3ccc(NS(=O)(=O)CCO)cc3N3CCC4(CC3)CC4)n2)CCO1 [AM-5308]

remaining activity at 1 µM [1, 7]: 95%
remaining activity at 1 µM [2, 7]: 100%
remaining activity at 1 µM [3, 7]: 100%
remaining activity at 1 µM [4, 7]: 100%
SMILES: CC(C)(CO)Nc1ccc(C(=O)Nc2cccc(S(=O)(=O)C3CCCC3)c2)c(N2CCC3(CC2)CC3)n1 [AM-0277]
